Test results published in the NIST ThermoML archive (doi:10.1021/je060271a).
± gives the expanded uncertainty stated by the source.

Conditions: Liquid, Vibrating tube method

## CCCC(=O)OCC(COC(=O)CCC)(COC(=O)CCC)COC(=O)CCC [pentaerythritol tetrabutyrate]
323.14 K, 26626 kPa
  mass density: 1043 ± 1.3 kg/m3
323.14 K, 26670 kPa
  mass density: 1042.8 ± 1.3 kg/m3
323.14 K, 26714 kPa
  mass density: 1042.8 ± 1.3 kg/m3
323.14 K, 26767 kPa
  mass density: 1043 ± 1.3 kg/m3
323.14 K, 26810 kPa
  mass density: 1043 ± 1.3 kg/m3
323.14 K, 26863 kPa
  mass density: 1043 ± 1.3 kg/m3
323.14 K, 26908 kPa
  mass density: 1043.1 ± 1.3 kg/m3
323.14 K, 26952 kPa
  mass density: 1043.1 ± 1.3 kg/m3
323.14 K, 26996 kPa
  mass density: 1043.1 ± 1.3 kg/m3
323.14 K, 27582 kPa
  mass density: 1043.5 ± 1.3 kg/m3
323.14 K, 27638 kPa
  mass density: 1043.5 ± 1.3 kg/m3
323.14 K, 27684 kPa
  mass density: 1043.6 ± 1.3 kg/m3
323.14 K, 27740 kPa
  mass density: 1043.6 ± 1.3 kg/m3
323.14 K, 27788 kPa
  mass density: 1043.6 ± 1.3 kg/m3
323.14 K, 27834 kPa
  mass density: 1043.6 ± 1.3 kg/m3
323.14 K, 27946 kPa
  mass density: 1043.8 ± 1.3 kg/m3
323.14 K, 28044 kPa
  mass density: 1043.9 ± 1.3 kg/m3
323.14 K, 28300 kPa
  mass density: 1044 ± 1.3 kg/m3
323.14 K, 28359 kPa
  mass density: 1044 ± 1.3 kg/m3
323.14 K, 28792 kPa
  mass density: 1044.3 ± 1.3 kg/m3
323.14 K, 28843 kPa
  mass density: 1044.3 ± 1.3 kg/m3
323.14 K, 28902 kPa
  mass density: 1044.3 ± 1.3 kg/m3
323.14 K, 28941 kPa
  mass density: 1044.3 ± 1.3 kg/m3
323.14 K, 29012 kPa
  mass density: 1044.3 ± 1.3 kg/m3
323.14 K, 29875 kPa
  mass density: 1044.9 ± 1.3 kg/m3
323.14 K, 29913 kPa
  mass density: 1045 ± 1.3 kg/m3
323.14 K, 29948 kPa
  mass density: 1045.1 ± 1.3 kg/m3
323.14 K, 29992 kPa
  mass density: 1045 ± 1.3 kg/m3
323.14 K, 30269 kPa
  mass density: 1045.3 ± 1.3 kg/m3
323.14 K, 30315 kPa
  mass density: 1045.2 ± 1.3 kg/m3
323.14 K, 30353 kPa
  mass density: 1045.4 ± 1.3 kg/m3
323.14 K, 30391 kPa
  mass density: 1045.3 ± 1.3 kg/m3
323.14 K, 30431 kPa
  mass density: 1045.3 ± 1.3 kg/m3
323.14 K, 30476 kPa
  mass density: 1045.2 ± 1.3 kg/m3
323.14 K, 30514 kPa
  mass density: 1045.3 ± 1.3 kg/m3
323.14 K, 32076 kPa
  mass density: 1046.4 ± 1.3 kg/m3
323.14 K, 32110 kPa
  mass density: 1046.4 ± 1.3 kg/m3
323.14 K, 32957 kPa
  mass density: 1046.8 ± 1.3 kg/m3
323.14 K, 33000 kPa
  mass density: 1046.9 ± 1.3 kg/m3
323.14 K, 33035 kPa
  mass density: 1046.8 ± 1.3 kg/m3
323.14 K, 33078 kPa
  mass density: 1046.9 ± 1.3 kg/m3
323.14 K, 33115 kPa
  mass density: 1046.9 ± 1.3 kg/m3
323.14 K, 33350 kPa
  mass density: 1047 ± 1.3 kg/m3
323.14 K, 33751 kPa
  mass density: 1047.3 ± 1.3 kg/m3
323.14 K, 33878 kPa
  mass density: 1047.3 ± 1.3 kg/m3
323.14 K, 33919 kPa
  mass density: 1047.4 ± 1.3 kg/m3
323.14 K, 33970 kPa
  mass density: 1047.4 ± 1.3 kg/m3
323.15 K, 3349 kPa
  mass density: 1027.1 ± 1.2 kg/m3
323.15 K, 3467.5 kPa
  mass density: 1027.3 ± 1.2 kg/m3
323.15 K, 3496.8 kPa
  mass density: 1027.3 ± 1.2 kg/m3
323.15 K, 3562.1 kPa
  mass density: 1027.3 ± 1.2 kg/m3
323.15 K, 5277.4 kPa
  mass density: 1028.8 ± 1.2 kg/m3
323.15 K, 5278.3 kPa
  mass density: 1028.7 ± 1.2 kg/m3
323.15 K, 5281.4 kPa
  mass density: 1028.8 ± 1.2 kg/m3
323.15 K, 5284.5 kPa
  mass density: 1028.8 ± 1.2 kg/m3
323.15 K, 5287 kPa
  mass density: 1028.7 ± 1.2 kg/m3
323.15 K, 5288.9 kPa
  mass density: 1028.7 ± 1.2 kg/m3
323.15 K, 5289.7 kPa
  mass density: 1028.8 ± 1.2 kg/m3
323.15 K, 5290.8 kPa
  mass density: 1028.8 ± 1.2 kg/m3
323.15 K, 5291.3 kPa
  mass density: 1028.8 ± 1.2 kg/m3
323.15 K, 5291.6 kPa
  mass density: 1028.8 ± 1.2 kg/m3
323.15 K, 5292 kPa
  mass density: 1028.8 ± 1.2 kg/m3
323.15 K, 5292.5 kPa
  mass density: 1028.8 ± 1.2 kg/m3
323.15 K, 5292.8 kPa
  mass density: 1028.8 ± 1.2 kg/m3
323.15 K, 5293.4 kPa
  mass density: 1028.7 ± 1.2 kg/m3
323.15 K, 5293.7 kPa
  mass density: 1028.9 ± 1.2 kg/m3
323.15 K, 5293.9 kPa
  mass density: 1028.8 ± 1.2 kg/m3
323.15 K, 5294 kPa
  mass density: 1028.7 ± 1.2 kg/m3
323.15 K, 5294.2 kPa
  mass density: 1028.9 ± 1.2 kg/m3
323.15 K, 5295.1 kPa
  mass density: 1028.9 ± 1.2 kg/m3
323.15 K, 5295.9 kPa
  mass density: 1029 ± 1.2 kg/m3
323.15 K, 5296.1 kPa
  mass density: 1028.7 ± 1.2 kg/m3
323.15 K, 5296.6 kPa
  mass density: 1028.7 ± 1.2 kg/m3
323.15 K, 5297 kPa
  mass density: 1028.8 ± 1.2 kg/m3
323.15 K, 5297.2 kPa
  mass density: 1028.8 ± 1.2 kg/m3
323.15 K, 5297.3 kPa
  mass density: 1028.9 ± 1.2 kg/m3
323.15 K, 5297.5 kPa
  mass density: 1028.8 ± 1.2 kg/m3
323.15 K, 5297.8 kPa
  mass density: 1028.8 ± 1.2 kg/m3
323.15 K, 5324.7 kPa
  mass density: 1028.9 ± 1.2 kg/m3
323.15 K, 5344.4 kPa
  mass density: 1028.9 ± 1.2 kg/m3
323.15 K, 5347.8 kPa
  mass density: 1028.8 ± 1.2 kg/m3
323.15 K, 5370.7 kPa
  mass density: 1028.8 ± 1.2 kg/m3
323.15 K, 5375.9 kPa
  mass density: 1028.8 ± 1.2 kg/m3
323.15 K, 5394.4 kPa
  mass density: 1028.9 ± 1.2 kg/m3
323.15 K, 5418.8 kPa
  mass density: 1029 ± 1.2 kg/m3
323.15 K, 5422.4 kPa
  mass density: 1028.9 ± 1.2 kg/m3
323.15 K, 5445.4 kPa
  mass density: 1028.9 ± 1.2 kg/m3
323.15 K, 5446.8 kPa
  mass density: 1028.9 ± 1.2 kg/m3
323.15 K, 5456 kPa
  mass density: 1028.9 ± 1.2 kg/m3
323.15 K, 5465.5 kPa
  mass density: 1028.9 ± 1.2 kg/m3
323.15 K, 5470.8 kPa
  mass density: 1029 ± 1.2 kg/m3
323.15 K, 5493.7 kPa
  mass density: 1028.9 ± 1.2 kg/m3
323.15 K, 5495.4 kPa
  mass density: 1028.9 ± 1.2 kg/m3
323.15 K, 5499.9 kPa
  mass density: 1029 ± 1.2 kg/m3
323.15 K, 5505.6 kPa
  mass density: 1028.9 ± 1.2 kg/m3
323.15 K, 5511.7 kPa
  mass density: 1028.8 ± 1.2 kg/m3
323.15 K, 5524.8 kPa
  mass density: 1029 ± 1.2 kg/m3
323.15 K, 5529.5 kPa
  mass density: 1029 ± 1.2 kg/m3
323.15 K, 5540.8 kPa
  mass density: 1028.9 ± 1.2 kg/m3
323.15 K, 5549.5 kPa
  mass density: 1029 ± 1.2 kg/m3
323.15 K, 5554.5 kPa
  mass density: 1029 ± 1.2 kg/m3
323.15 K, 5560.3 kPa
  mass density: 1028.9 ± 1.2 kg/m3
323.15 K, 5567.9 kPa
  mass density: 1028.9 ± 1.2 kg/m3
323.15 K, 5573.4 kPa
  mass density: 1028.9 ± 1.2 kg/m3
323.15 K, 5575 kPa
  mass density: 1029 ± 1.2 kg/m3
323.15 K, 5578 kPa
  mass density: 1029 ± 1.2 kg/m3
323.15 K, 5582.5 kPa
  mass density: 1029 ± 1.2 kg/m3
323.15 K, 5586.4 kPa
  mass density: 1028.9 ± 1.2 kg/m3
323.15 K, 5590.4 kPa
  mass density: 1029.1 ± 1.2 kg/m3
323.15 K, 5594.2 kPa
  mass density: 1029 ± 1.2 kg/m3
323.15 K, 5605.6 kPa
  mass density: 1029 ± 1.2 kg/m3
323.15 K, 5630.8 kPa
  mass density: 1029 ± 1.2 kg/m3
323.15 K, 5657.1 kPa
  mass density: 1029.1 ± 1.2 kg/m3
323.15 K, 5683.6 kPa
  mass density: 1029.1 ± 1.2 kg/m3
323.15 K, 5710.2 kPa
  mass density: 1029.1 ± 1.2 kg/m3
323.15 K, 5742 kPa
  mass density: 1029.1 ± 1.2 kg/m3
323.15 K, 5769.2 kPa
  mass density: 1029.2 ± 1.2 kg/m3
323.15 K, 5797 kPa
  mass density: 1029.2 ± 1.2 kg/m3
323.15 K, 5824.3 kPa
  mass density: 1029.2 ± 1.2 kg/m3
323.15 K, 5857.7 kPa
  mass density: 1029.2 ± 1.2 kg/m3
323.15 K, 5886.4 kPa
  mass density: 1029.2 ± 1.2 kg/m3
323.15 K, 5945.6 kPa
  mass density: 1029.2 ± 1.2 kg/m3
323.15 K, 5970.4 kPa
  mass density: 1029.2 ± 1.2 kg/m3
323.15 K, 6001.7 kPa
  mass density: 1029.3 ± 1.2 kg/m3
323.15 K, 6023.4 kPa
  mass density: 1029.3 ± 1.2 kg/m3
323.15 K, 6053.9 kPa
  mass density: 1029.4 ± 1.2 kg/m3
323.15 K, 6080.4 kPa
  mass density: 1029.4 ± 1.2 kg/m3
323.15 K, 6107 kPa
  mass density: 1029.4 ± 1.2 kg/m3
323.15 K, 6138.8 kPa
  mass density: 1029.4 ± 1.2 kg/m3
323.15 K, 6163.7 kPa
  mass density: 1029.4 ± 1.2 kg/m3
323.15 K, 6187.1 kPa
  mass density: 1029.4 ± 1.2 kg/m3
323.15 K, 6215.2 kPa
  mass density: 1029.6 ± 1.2 kg/m3
323.15 K, 6240.1 kPa
  mass density: 1029.4 ± 1.2 kg/m3
323.15 K, 6265 kPa
  mass density: 1029.5 ± 1.2 kg/m3
323.15 K, 6287.3 kPa
  mass density: 1029.5 ± 1.2 kg/m3
323.15 K, 6301.7 kPa
  mass density: 1029.5 ± 1.2 kg/m3
323.15 K, 6311 kPa
  mass density: 1029.5 ± 1.2 kg/m3
323.15 K, 6319.5 kPa
  mass density: 1029.4 ± 1.2 kg/m3
323.15 K, 6327.5 kPa
  mass density: 1029.6 ± 1.2 kg/m3
323.15 K, 6345.8 kPa
  mass density: 1029.6 ± 1.2 kg/m3
323.15 K, 6372.1 kPa
  mass density: 1029.6 ± 1.2 kg/m3
323.15 K, 6398.4 kPa
  mass density: 1029.7 ± 1.2 kg/m3
323.15 K, 6423.8 kPa
  mass density: 1029.8 ± 1.2 kg/m3
323.15 K, 6456.6 kPa
  mass density: 1029.6 ± 1.2 kg/m3
323.15 K, 6483.4 kPa
  mass density: 1029.6 ± 1.2 kg/m3
323.15 K, 6511.5 kPa
  mass density: 1029.6 ± 1.2 kg/m3
